System: MPNST complex spheroid with HUVEC/MSC, growth, % test/control
Assay: Anticancer human tumor MPNST cell line growth inhibition [Asc];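 also: compounds left on spheroids for seven days before reading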
Conditions: for IC50: curve of first compound; for viability, T/C: stronger effect = lower value
Summary of the method: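 Tumor cells were grown as multicellular spheroids with stromal HUVEC and mesenchymal stem cells and treated singly or in combination. Concentrations fell in half-log steps from the clinical Cmax, or from 10 microM where none was known.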

Work on `O=C(c1cc(Cc2n[nH]c(=O)c3ccccc23)ccc1F)N1CCN(C(=O)C2CC2)CC1` + CCN1C(C(=O)NC23CCC(C(=O)O)(CC2)CC3)C(c2cccc(Cl)c2F)C2(C(=O)Nc3cc(Cl)ccc32)C12CCCCC2 yielded an IC50 (second compound 0.03 µM) of over 10 µM, an IC50 (second compound 0.0949 µM) of over 10 µM and an IC50 (second compound 0.3 µM) of over 10 µM. The IC50 (second compound 0.949 µM) was over 10 µM, the IC50 (second compound 3 µM) was over 10 µM and the viability, T/C (second compound 0.03 µM, first compound 0.0316 µM) was 122%. The viability, T/C (second compound 0.03 µM, first compound 0.1 µM) was 113%, the viability, T/C (second compound 0.03 µM, first compound 0.316 µM) was 101% and the viability, T/C (second compound 0.03 µM, first compound 1 µM) was 80.6%. The viability, T/C (second compound 0.03 µM, first compound 3.16 µM) was 65.8%, the viability, T/C (second compound 0.03 µM, first compound 10 µM) was 50.1% and the viability, T/C (second compound 0.0949 µM, first compound 0.0316 µM) was 141%. The viability, T/C (second compound 0.0949 µM, first compound 0.1 µM) was 115%, the viability, T/C (second compound 0.0949 µM, first compound 0.316 µM) was 121% and the viability, T/C (second compound 0.0949 µM, first compound 1 µM) was 106%. The viability, T/C (second compound 0.0949 µM, first compound 3.16 µM) was 97.9%, the viability, T/C (second compound 0.0949 µM, first compound 10 µM) was 61.5% and the viability, T/C (second compound 0.3 µM, first compound 0.0316 µM) was 122%. The viability, T/C (second compound 0.3 µM, first compound 0.1 µM) was 115%, the viability, T/C (second compound 0.3 µM, first compound 0.316 µM) was 117% and the viability, T/C (second compound 0.3 µM, first compound 1 µM) was 93.1%. The viability, T/C (second compound 0.3 µM, first compound 3.16 µM) was 100%, the viability, T/C (second compound 0.3 µM, first compound 10 µM) was 71.4% and the viability, T/C (second compound 0.949 µM, first compound 0.0316 µM) was 111%. For the same molecule, the viability, T/C (second compound 0.949 µM, first compound 0.1 µM) was 113%, the viability, T/C (second compound 0.949 µM, first compound 0.316 µM) was 118% and the viability, T/C (second compound 0.949 µM, first compound 1 µM) was 100%. It also gave a viability, T/C (second compound 0.949 µM, first compound 3.16 µM) of 100%, a viability, T/C (second compound 0.949 µM, first compound 10 µM) of 78.2% and a viability, T/C (second compound 3 µM, first compound 0.0316 µM) of 105%. The viability, T/C (second compound 3 µM, first compound 0.1 µM) was 107%, the viability, T/C (second compound 3 µM, first compound 0.316 µM) was 116% and the viability, T/C (second compound 3 µM, first compound 1 µM) was 90.9%. The viability, T/C (second compound 3 µM, first compound 3.16 µM) was 88.8% and the viability, T/C (second compound 3 µM, first compound 10 µM) was 72.2%.
`COc1c(OCCCN2CCOCC2)ccc2c3n(c(=NC(=O)c4cnc(N)nc4)nc12)CCN3` + CNC(C)C(=O)NC1CN(S(=O)(=O)c2cccc(S(=O)(=O)N3CCC4CCC(C(=O)NC(c5ccccc5)c5ccccc5)N4C(=O)C(NC(=O)C(C)NC)C3)c2)CCC2CCC(C(=O)NC(c3ccccc3)c3ccccc3)N2C1=O gave an IC50 (second compound 0.00316 µM) of 0.0171 µM, an IC50 (second compound 0.01 µM) of 0.0294 µM and an IC50 (second compound 0.0316 µM) of 0.0246 µM. For the same molecule, the IC50 (second compound 0.1 µM) was 0.0156 µM, the IC50 (second compound 0.316 µM) was 0.0132 µM and the IC50 (second compound 1 µM) was 0.01 µM. The viability, T/C (second compound 0.00316 µM, first compound 0.00316 µM) was 89.4%, the viability, T/C (second compound 0.00316 µM, first compound 0.01 µM) was 66.3% and the viability, T/C (second compound 0.00316 µM, first compound 0.0316 µM) was 28.6%. For the same molecule, the viability, T/C (second compound 0.00316 µM, first compound 0.1 µM) was 24.9%, the viability, T/C (second compound 0.00316 µM, first compound 0.316 µM) was 9.54% and the viability, T/C (second compound 0.00316 µM, first compound 1 µM) was 5.55%. The viability, T/C (second compound 0.01 µM, first compound 0.00316 µM) was 81.5%, the viability, T/C (second compound 0.01 µM, first compound 0.01 µM) was 71.1% and the viability, T/C (second compound 0.01 µM, first compound 0.0316 µM) was 49.9%. The viability, T/C (second compound 0.01 µM, first compound 0.1 µM) was 18.6%, the viability, T/C (second compound 0.01 µM, first compound 0.316 µM) was 10.2% and the viability, T/C (second compound 0.01 µM, first compound 1 µM) was 5.07%. It also gave a viability, T/C (second compound 0.0316 µM, first compound 0.00316 µM) of 104%, a viability, T/C (second compound 0.0316 µM, first compound 0.01 µM) of 61.6% and a viability, T/C (second compound 0.0316 µM, first compound 0.0316 µM) of 57.1%. For the same molecule, the viability, T/C (second compound 0.0316 µM, first compound 0.1 µM) was 19.4%, the viability, T/C (second compound 0.0316 µM, first compound 0.316 µM) was 9.82% and the viability, T/C (second compound 0.0316 µM, first compound 1 µM) was 4.9%. For the same molecule, the viability, T/C (second compound 0.1 µM, first compound 0.00316 µM) was 90.1%, the viability, T/C (second compound 0.1 µM, first compound 0.01 µM) was 59.8% and the viability, T/C (second compound 0.1 µM, first compound 0.0316 µM) was 32.2%. It also gave a viability, T/C (second compound 0.1 µM, first compound 0.1 µM) of 25.8%, a viability, T/C (second compound 0.1 µM, first compound 0.316 µM) of 13.8% and a viability, T/C (second compound 0.1 µM, first compound 1 µM) of 5.12%. It also gave a viability, T/C (second compound 0.316 µM, first compound 0.00316 µM) of 78.7%, a viability, T/C (second compound 0.316 µM, first compound 0.01 µM) of 52.2% and a viability, T/C (second compound 0.316 µM, first compound 0.0316 µM) of 39.3%. For the same molecule, the viability, T/C (second compound 0.316 µM, first compound 0.1 µM) was 19.8%, the viability, T/C (second compound 0.316 µM, first compound 0.316 µM) was 11.1% and the viability, T/C (second compound 0.316 µM, first compound 1 µM) was 5.92%. For the same molecule, the viability, T/C (second compound 1 µM, first compound 0.00316 µM) was 65.7%, the viability, T/C (second compound 1 µM, first compound 0.01 µM) was 51% and the viability, T/C (second compound 1 µM, first compound 0.0316 µM) was 32%. The viability, T/C (second compound 1 µM, first compound 0.1 µM) was 21.2%, the viability, T/C (second compound 1 µM, first compound 0.316 µM) was 10.2% and the viability, T/C (second compound 1 µM, first compound 1 µM) was 5.66%.

Source: PubChem BioAssay AID1963442 (Molecular Pharmacology Branch, DTP, NCI, 2024)
